The values that follow come from PubChem BioAssay (NCI).

Among the test systems are HCT-116 colon; RPMI-8226 leukemia; SF-295 CNS; LOX IMVI melanoma; KM12 colon; HCT-15 colon; UO-31 renal; RXF 393 renal; SN12C renal; SK-OV-3 ovarian; T-47D breast; PC-3 prostate; U251 CNS; SR leukemia; SF-539 CNS; NCI-H522 lung; K-562 leukemia; M14 melanoma; TK-10 renal; SF-268 CNS.
Holding throughout (experiment): NCI anticancer screen, dose series, 48 h

Molecules are shown by their SMILES.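 Exposure lasted 48 hours, with cells grown in 96-well plates and compounds tested at five concentrations. TGI: total growth inhibition.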 A value given as a limit tells only on which side of the number the result lay.

Regarding `CC1(C)C/C(=N/O)c2c(nc3ccc4ccccc4c3c2-c2ccc(Cl)cc2)C1`, the TGI is 24.1 µM in the experiment on HCT-116 colon; more than 100 µM in the experiment with RPMI-8226 leukemia; 22.8 µM in the experiment on SF-295 CNS; 26.6 µM in the experiment on LOX IMVI melanoma; more than 100 µM with KM12 colon; 41.6 µM in the experiment with HCT-15 colon. Further, the TGI in the experiment with UO-31 renal is 43.5 µM; in the experiment with RXF 393 renal, 39.4 µM; in the experiment on SN12C renal, 22.7 µM; in the experiment with SK-OV-3 ovarian, 34.7 µM; in the experiment with T-47D breast, 34.2 µM; with PC-3 prostate, more than 100 µM. Besides, the TGI with U251 CNS is 24 µM; in the experiment with SR leukemia it was 21 µM; in the experiment on SF-539 CNS, 36.4 µM; in the experiment on NCI-H522 lung, 28.6 µM; with K-562 leukemia it was 65.6 µM; in the experiment on M14 melanoma it was more than 100 µM. In addition, the TGI was determined as 33.9 µM in the experiment on TK-10 renal and 30.1 µM in the experiment on SF-268 CNS.
Take `c1ccc2c(c1)cc1c3[nH]c4ccccc4c3ccn21`: the TGI in the experiment on HCT-116 colon, with RPMI-8226 leukemia, with SF-295 CNS, in the experiment with LOX IMVI melanoma, in the experiment on KM12 colon and in the experiment on HCT-15 colon was more than 10 µM in each case. Besides, the TGI with UO-31 renal, in the experiment on RXF 393 renal, in the experiment on SN12C renal, in the experiment on SK-OV-3 ovarian, in the experiment with T-47D breast and with PC-3 prostate was more than 10 µM each time. For the same molecule, the TGI in the experiment with U251 CNS, with SR leukemia, in the experiment with SF-539 CNS, in the experiment on NCI-H522 lung, with K-562 leukemia and in the experiment on M14 melanoma was more than 10 µM in each case. In addition, the TGI in the experiment with TK-10 renal and with SF-268 CNS was more than 10 µM in each case.
Take `COCn1cnc2c(=O)n(-c3ccc(OC)cc3)c(=S)n(-c3ccc(OC)cc3)c21`: the TGI in the experiment on HCT-116 colon, in the experiment with RPMI-8226 leukemia, in the experiment on SF-295 CNS, with LOX IMVI melanoma, in the experiment on KM12 colon and in the experiment on HCT-15 colon was more than 100 µM throughout. In addition, the TGI in the experiment on UO-31 renal, in the experiment with RXF 393 renal, in the experiment on SN12C renal, with SK-OV-3 ovarian, in the experiment on T-47D breast and in the experiment with PC-3 prostate was more than 100 µM each time. Further, the TGI with U251 CNS, in the experiment on SR leukemia, in the experiment with SF-539 CNS, with NCI-H522 lung, with K-562 leukemia and in the experiment with M14 melanoma was more than 100 µM each time. The TGI in the experiment with TK-10 renal and with SF-268 CNS was more than 100 µM in each case.
As to `CCN(C(C)=O)c1cnc(/C=N/NC(N)=S)c2ccccc12`, the TGI in the experiment on HCT-116 colon was more than 100 µM; in the experiment with RPMI-8226 leukemia, more than 100 µM; with SF-295 CNS, more than 68.9 µM; with LOX IMVI melanoma, 10.1 µM; in the experiment with KM12 colon, more than 100 µM; in the experiment on HCT-15 colon it was more than 100 µM. For the same molecule, the TGI was 7.85 µM in the experiment on UO-31 renal; more than 100 µM with RXF 393 renal; more than 57.6 µM in the experiment on SN12C renal; more than 100 µM with SK-OV-3 ovarian; more than 100 µM in the experiment on T-47D breast; more than 100 µM with PC-3 prostate. The TGI in the experiment with U251 CNS is more than 100 µM; with SR leukemia, more than 65.8 µM; in the experiment on SF-539 CNS it was 13.6 µM; in the experiment on NCI-H522 lung, more than 36.2 µM; in the experiment with K-562 leukemia it was more than 100 µM; in the experiment on M14 melanoma it was more than 30.7 µM. Besides, the TGI with TK-10 renal and in the experiment with SF-268 CNS was more than 100 µM throughout.
Take `C=CCN1C(=O)/C(=C/c2ccc(C)cc2)NC1=S`: the TGI in the experiment on HCT-116 colon, in the experiment on RPMI-8226 leukemia, in the experiment on SF-295 CNS, with LOX IMVI melanoma, with KM12 colon and in the experiment on HCT-15 colon was more than 100 µM throughout. Moreover, the TGI in the experiment with UO-31 renal, with RXF 393 renal, with SN12C renal, in the experiment with SK-OV-3 ovarian, in the experiment with T-47D breast and with PC-3 prostate was more than 100 µM throughout. Further, the TGI with U251 CNS, in the experiment with SR leukemia, in the experiment on SF-539 CNS, with NCI-H522 lung, in the experiment with K-562 leukemia and in the experiment on M14 melanoma was more than 100 µM throughout. For the same molecule, the TGI in the experiment on TK-10 renal and in the experiment on SF-268 CNS was more than 100 µM each time.
For `Cn1c(Cl)cn2c3nc4ccccc4nc3c(=O)c(C#N)c12`, the TGI in the experiment on HCT-116 colon, in the experiment on RPMI-8226 leukemia, with SF-295 CNS, in the experiment with LOX IMVI melanoma, in the experiment on KM12 colon and with HCT-15 colon was more than 100 µM throughout. The TGI with UO-31 renal, in the experiment with RXF 393 renal, in the experiment with SN12C renal, in the experiment with SK-OV-3 ovarian, in the experiment with T-47D breast and in the experiment with PC-3 prostate was more than 100 µM each time. Further, the TGI in the experiment with U251 CNS, in the experiment with SR leukemia, in the experiment on SF-539 CNS, with NCI-H522 lung, with K-562 leukemia and with M14 melanoma was more than 100 µM each time. Besides, the TGI in the experiment with TK-10 renal and in the experiment with SF-268 CNS was more than 100 µM throughout.
As for `CC1=NN(C(=O)CC(=O)Nc2ccc(C)cc2)C(=O)C1N=Nc1ccc(S(=O)(=O)c2ccc(N=NC3C(=O)N(C(=O)CC(=O)Nc4ccc(C)cc4)N=C3C)cc2)cc1` (stereo not given), the TGI with HCT-116 colon, with RPMI-8226 leukemia, in the experiment with SF-295 CNS, with LOX IMVI melanoma, in the experiment on KM12 colon and in the experiment on HCT-15 colon was more than 100 µM in each case. The TGI in the experiment on UO-31 renal, in the experiment on RXF 393 renal, in the experiment with SN12C renal, in the experiment on SK-OV-3 ovarian, with T-47D breast and in the experiment with PC-3 prostate was more than 100 µM throughout. Further, the TGI with U251 CNS, with SR leukemia, in the experiment with SF-539 CNS, in the experiment on NCI-H522 lung, in the experiment on K-562 leukemia and in the experiment with M14 melanoma was more than 100 µM in each case. Further, the TGI with TK-10 renal and in the experiment on SF-268 CNS was more than 100 µM throughout.
